This note sets out measurements from article PMC8545574, “Antioxidant, Anti-Inflammatory, and Antidiabetic Activities of Bioactive Compounds from the Fruits of Livistona chinensis Based on Network Pharmacology Prediction” (Oxidative Medicine and Cellular Longevity, 2021).

For experiment [1], the system named is LPS-stimulated NO release in RAW 264.7 cells. The experiment in a line: Nitrite (Griess) assay of LPS-stimulated NO release. It is filed as cell-based. The conditions noted are these: Mus musculus, RAW264.7, LPS (1 μg/mL)-stimulated RAW 264.7 cells; mean ± SD, n = 3; read-out: IC50 NO production anti-inflammatory effect. The method, then: The level of NO production was tested by measuring the nitrite level in the culture medium with the Griess method. Cells were seeded at a density of 2 × 10^4 cells per well in 96-well plates. […] A microplate reader was employed for the optical density measurement at 570 nm.
(In general: The Griess reaction detects nitrite, a stable product of nitric oxide.)

The target of experiment [2] is α-Glucosidase (from Baker's yeast). The experiment in a line: α-Glucosidase inhibitory assay (p-NPG substrate). The conditions noted are these: read-out: IC50 α-Glucosidase inhibitory effect; mean ± SD, n = 3.
Protocol: The extract, fractions, and compounds were dissolved in 5% DMSO and then diluted with phosphate buffer. Briefly, 80 μL PBS, 20 μL of varying concentrations of sample solutions, and 20 μL α-glucosidase solution (1.3 U/mL) were mixed and incubated in 96-well plates at 37°C for 5 min. The reaction started when 20 μL p-nitrophenyl-α-D-glucopyranoside (2.5 mM) was added to the plate. The reaction mixture was incubated for 15 min at 37°C, and then, 80 μL Na2CO3 (0.2 M) was added to stop the reaction.
Experiment [3] can be described thus: DPPH free radical scavenging assay. It is filed as biochemical. The conditions noted are these: mean ± SD, n = 3. The method, then:
The DPPH free radical scavenging assay was performed according to a previously reported method. A series of different concentrations of the tested samples and the positive control ascorbic acid were mixed with freshly prepared DPPH (0.2 mM) in a 96-well microplate with a total volume of 150 μL. After leaving the mixture to react in the dark for 30 min, its absorbance was determined at 517 nm. All of the wells with only samples were set as blanks to obtain an absorbance value, which was subtracted from the test sample readings. The percentage inhibition (%) for each sample was calculated by the following formula: (1) Inhibition %=Absblank−Abssamples/Absblank×100%, where Absblank and Abssamples correspond to the absorbance units (at 517 nm) of DPPH solutions incubated in the absence and presence of the tested samples.
(In general: Loss of DPPH colour is used to gauge radical scavenging.)

The nature of experiment [4]: ABTS radical cation scavenging assay. It is filed as biochemical. The conditions noted are these: mean ± SD, n = 3. The method, then: The ABTS radical cation (ABTS·+) was prepared by reacting ABTS with potassium persulfate following the method previously described. The ABTS radical cation (ABTS·+) was prepared by mixing with 2.45 mM potassium persulfate and equal volumes of an ABTS solution (7 mM), and then, they were permitted to react in the darkness at room temperature for 12–16 h. Thereafter, the ABTS reagent was diluted with methyl alcohol until reaching an absorbance of 0.70 ± 0.02 units at 734 nm. In a 96-well microplate, ABTS reagent (190 μL in each well) and samples (10 μL in each well) were incubated at room temperature for 20 min. To determine the antioxidant capacity by the ABTS method, the experimental conditions and protocol were identical to those of the DPPH assay. The only difference was that the absorbance was measured at 734 nm.

Experiment [5] concerns insulin-resistant HepG2 cells. The experiment in a line: Glucose consumption by insulin-resistant HepG2 cells. It is filed as cell-based, human. Conditions: insulin-resistant HepG2 cells. As to the method: HepG2 cells were cultivated in DMEM (without phenol red) containing 10% fetal bovine serum at 37°C in a humidified 5% CO2 atmosphere. An insulin-resistant cell model was established in accordance with a previous method, with some modifications. Cells were seeded in a 96-well plate with 1 × 10^4 cells per well. After incubation for 24 h, the medium was replaced with serum-free medium (without phenol red) containing 5 × 10^−6 mol/L insulin and incubated for 24 h. The cell culture medium was then replaced with the samples at different concentrations. The compounds were first dissolved in DMSO and subsequently diluted with medium containing 1% FBS to achieve different concentrations. The final concentration of DMSO was no more than 0.1%. At the end of the 24 h incubation, glucose in the medium was measured using the glucose oxidase-peroxidase method kit (Nanjing Jiancheng Biological Co., Ltd.). The amount of glucose consumption was calculated as follows: (glucose of the DMEM − glucose concentration of each well).

Experiment [6] deals with T1, PTP1B (Homo sapiens, UniProt P18031).
T1 sequence (P18031 1-321 limits assumed): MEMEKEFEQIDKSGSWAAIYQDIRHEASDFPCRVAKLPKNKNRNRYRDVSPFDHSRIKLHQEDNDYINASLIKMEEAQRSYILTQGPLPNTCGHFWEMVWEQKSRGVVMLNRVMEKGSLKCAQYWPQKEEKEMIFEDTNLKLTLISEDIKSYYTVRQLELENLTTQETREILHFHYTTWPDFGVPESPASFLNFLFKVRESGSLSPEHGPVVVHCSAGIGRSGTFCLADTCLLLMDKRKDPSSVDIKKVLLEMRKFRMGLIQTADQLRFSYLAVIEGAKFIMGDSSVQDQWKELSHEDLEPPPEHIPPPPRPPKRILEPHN
The experiment in a line: Fluorescence quenching measurement of PTP1B. Also noted: purchased Abcam (Shanghai) Trading Co., Ltd. ab51277. It is filed as binding. As to the method:
180 μL of the buffer with 10 μL of the PTP1B at the concentration used in the assays were added into the 96-well black plates followed by 10 μL different concentrations (0, 6.25, 9.37, 12.5, 18.75, 25, and 50 μM) of inhibitor. The excitation wavelength was set at 250 nm, and the fluorescence emission spectra were collected from 300-400 nm with an emission bandwidth of 2 nm. The quenching parameters such as the Stern-Volmer constant (KSV), binding constant (KA), and the number of binding sites (n) were determined by the formula [33]. (4) F0/F=1+KSVQf,logFo−F/F=logKA+nlogQf, where F0 and F are the fluorescence intensities in the absence and presence of a quencher and [Q]f is a concentration of compounds.

The target in experiment [7] is T1, PTP1B. The experiment in a line: PTP1B enzyme inhibition kinetic study (Lineweaver-Burk and Dixon plots). It is filed as biochemical. Also noted: purchased Abcam (Shanghai) Trading Co., Ltd. ab51277. As to the method: Lineweaver−Burk double reciprocal plot and Dixon plot were used to study the kinetic behavior of active compounds against PTP1B and the corresponding inhibition constants (Ki values). […] The plate reader recorded the absorbance of the reaction mixture every 3 mins. The enzymatic velocity of the enzyme reaction was calculated based on the time − Δabs plot. The Lineweaver−Burk plot and Dixon plot were generated by GraphPad Prism 8 in order to determine the type of PTP1B inhibition and Ki.

For experiment [8], the target named is T1, PTP1B. The experiment in a line: PTP1B inhibitory assay (p-NPP substrate).
Protocol: PTP1B (10 μg/mL stock solution) was dissolved in 10 mM citrate buffer (pH 6.0), 1 mM dithiothreitol (DTT), and 1 mM N, N, N′, N′-ethylenediaminetetraacetate (EDTA). 20.0 μL PTP1B stock solution and 60 μL citrate buffer were added to each well of a 96-well plastic plate.

Some results are limits rather than exact numbers.

A word on the IC50: it is the midpoint of a concentration-inhibition curve. As usually defined, the Ki is a dissociation constant, usually derived from enzyme kinetics or from competition with a known ligand. Low values mean a stronger hold on the target, high ones a looser hold on the target. In the case of `COc1c(O)cc(O)c2c(=O)cc(-c3ccccc3)oc12` [Compound 6, wogonin], the IC50 in experiment [1] is 49.4 ± 1.85 µM; in experiment [2] it was more than 100 µM; in experiment [3], 99.36 ± 0.44 µM; in experiment [4], more than 100 µM; on PTP1B [8] it was 22.2 ± 0.58 µM. Moreover, in experiment [5], the “effect on glucose uptake (in words)” value was “little effect”. In addition, on PTP1B [6], the “K SV (Stern-Volmer constant)” value was found to be 22000 L/mol. Besides, the “n (number of binding sites)” value on PTP1B [6] was 1.12. In addition, the Kd at PTP1B [6] (read-out: K A (binding constant) (converted)) was 76.9 µM. Besides, the Ki on PTP1B [7] (determined by Dixon plots) came to 4.18 µM. Besides, the Inhibitory mode result at PTP1B [7] (determined by Lineweaver-Burk plots) is “Mixed-type”.
